Experimental data reported in article PMC8632500, “Identification of Conserved and Divergent Strigolactone Receptors in Sugarcane Reveals a Key Residue Crucial for Plant Branching Control” (Frontiers in Plant Science, 2021).
Where a chain is given by its changes, count along the chain named.

Key:
Assay in all cases: yeast two-hybrid, hormone-induced D14-MAX2 interaction
Format in all cases: cell-based
OsD14ΔN (with SsMAX2) [1] = target: T1, OsD14ΔN (with SsMAX2) (Oryza sativa, UniProt Q10QA5, R312P); conditions: 5 uM rac-GR24 versus DMSO; 30 °C, 4 days; partner SsMAX2; R312P in full-length count
T1 construct: gene D14; N-terminally truncated (printed OsD14ΔN53; R261/R312 offset implies 51 residues removed), GAL4-BD fusion, with Saccharum spontaneum MAX2 as GAL4-AD fusion, yeast AH109; with F-box protein MAX2 homolog (D3), Saccharum spontaneum
T1 sequence (Q10QA5 54-318 R312P): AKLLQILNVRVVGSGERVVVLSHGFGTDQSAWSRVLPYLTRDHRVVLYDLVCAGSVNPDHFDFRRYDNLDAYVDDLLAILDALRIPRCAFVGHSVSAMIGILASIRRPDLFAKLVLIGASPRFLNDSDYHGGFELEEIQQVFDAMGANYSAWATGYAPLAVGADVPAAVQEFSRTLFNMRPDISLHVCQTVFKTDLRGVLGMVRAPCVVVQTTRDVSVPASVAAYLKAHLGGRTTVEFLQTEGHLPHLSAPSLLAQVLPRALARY

SsD14b (with SsMAX2) = target: T2, SsD14b (with SsMAX2) (Saccharum spontaneum, UniProt Z9BCY6HYO0); conditions: 5 uM rac-GR24 versus DMSO; 30 °C, 4 days; partner SsMAX2
T2 construct: full-length CDS as GAL4-BD fusion (pGBKT7), SsMAX2 as GAL4-AD fusion (pGADT7), yeast AH109; with F-box protein MAX2 homolog (D3)
T2 sequence (Z9BCY6HYO0 1-310): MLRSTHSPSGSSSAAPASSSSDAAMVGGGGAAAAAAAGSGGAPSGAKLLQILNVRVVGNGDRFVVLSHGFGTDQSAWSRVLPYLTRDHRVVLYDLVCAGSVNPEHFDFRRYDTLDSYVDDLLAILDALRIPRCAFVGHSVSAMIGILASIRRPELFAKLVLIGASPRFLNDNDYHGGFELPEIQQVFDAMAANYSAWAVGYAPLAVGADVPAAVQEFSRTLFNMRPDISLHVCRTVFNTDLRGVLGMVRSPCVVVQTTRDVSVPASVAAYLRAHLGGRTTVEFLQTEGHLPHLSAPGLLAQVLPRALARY

AtD14 (with SsMAX2) [2] = target: T3, AtD14 (with SsMAX2) (Arabidopsis thaliana, UniProt Q9SQR3, R262P); conditions: 5 uM rac-GR24 versus DMSO; 30 °C, 4 days; partner SsMAX2
T3 construct: gene D14; GAL4-BD fusion, with Saccharum spontaneum MAX2 as GAL4-AD fusion, yeast AH109; with F-box protein MAX2 homolog (D3), Saccharum spontaneum
T3 sequence (Q9SQR3 1-267 R262P): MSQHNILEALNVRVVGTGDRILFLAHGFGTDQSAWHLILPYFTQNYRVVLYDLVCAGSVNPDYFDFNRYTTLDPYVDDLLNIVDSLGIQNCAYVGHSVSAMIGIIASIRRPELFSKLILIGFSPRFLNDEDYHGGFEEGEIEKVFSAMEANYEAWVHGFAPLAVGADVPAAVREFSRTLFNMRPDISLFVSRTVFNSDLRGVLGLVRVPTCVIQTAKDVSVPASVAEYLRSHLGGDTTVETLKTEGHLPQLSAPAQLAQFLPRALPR

OsD14ΔN (with SsMAX2) [3] = target: T4, OsD14ΔN (with SsMAX2) (Oryza sativa, UniProt Q10QA5); conditions: 5 uM rac-GR24 versus DMSO; 30 °C, 4 days; partner SsMAX2
T4 construct: gene D14; N-terminally truncated (printed OsD14ΔN53; R261/R312 offset implies 51 residues removed), GAL4-BD fusion, with Saccharum spontaneum MAX2 as GAL4-AD fusion, yeast AH109; with F-box protein MAX2 homolog (D3), Saccharum spontaneum
T4 sequence (Q10QA5 54-318): T1 sequence (Q10QA5 54-318 R312P) with P259R

AtD14 (with SsMAX2) [4] = target: T5, AtD14 (with SsMAX2) (Arabidopsis thaliana, UniProt Q9SQR3); conditions: 5 uM rac-GR24 versus DMSO; 30 °C, 4 days; partner SsMAX2
T5 construct: gene D14; GAL4-BD fusion, with Saccharum spontaneum MAX2 as GAL4-AD fusion, yeast AH109; with F-box protein MAX2 homolog (D3), Saccharum spontaneum
T5 sequence (Q9SQR3 1-267): T3 sequence (Q9SQR3 1-267 R262P) with P262R

SsD14a (with SsMAX2) = target: T6, SsD14a (with SsMAX2) (Saccharum spontaneum, UniProt Z9T3V1O2D3); conditions: 5 uM rac-GR24 versus DMSO; 30 °C, 4 days; partner SsMAX2
T6 construct: full-length CDS as GAL4-BD fusion (pGBKT7), SsMAX2 as GAL4-AD fusion (pGADT7), yeast AH109; 7F5W is apo SsD14a lacking residues 1-49; with F-box protein MAX2 homolog (D3)
T6 sequence (Z9T3V1O2D3 1-316): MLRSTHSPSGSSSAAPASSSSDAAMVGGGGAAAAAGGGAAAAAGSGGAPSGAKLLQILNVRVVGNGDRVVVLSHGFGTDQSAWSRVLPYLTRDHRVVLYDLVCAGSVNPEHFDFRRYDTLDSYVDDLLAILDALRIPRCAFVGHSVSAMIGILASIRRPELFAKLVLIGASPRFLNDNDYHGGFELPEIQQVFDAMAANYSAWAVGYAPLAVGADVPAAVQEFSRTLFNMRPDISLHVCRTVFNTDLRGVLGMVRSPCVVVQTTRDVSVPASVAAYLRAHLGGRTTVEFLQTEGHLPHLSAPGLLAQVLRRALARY

`CC1=CC(OC=C2C(=O)OC3c4ccccc4CC23)OC1=O` (racemic) [rac-GR24] was tested, and the “yeast two-hybrid, hormone-induced D14-MAX2 interaction” value (“yeast two-hybrid” for short) (OsD14ΔN (with SsMAX2) [1]) was “AtD14R262P and OsD14ΔNR261P, like wild-type proteins, still have strong hormone-dependent interactions with SsMAX2”, the “yeast two-hybrid” value (SsD14b (with SsMAX2)) was “SL induced both SsD14a and SsD14b to interact with SsMAX2 in yeast” and the “yeast two-hybrid” value (AtD14 (with SsMAX2) [2]) was “AtD14R262P and OsD14ΔNR261P, like wild-type proteins, still have strong hormone-dependent interactions with SsMAX2”. For the same compound, the “yeast two-hybrid” value (OsD14ΔN (with SsMAX2) [3]) was “like wild-type proteins, still have strong hormone-dependent interactions with SsMAX2”, the “yeast two-hybrid” value (AtD14 (with SsMAX2) [4]) was “SsMAX2 interacted with AtD14 in an SL-dependent manner” and the “yeast two-hybrid” value (SsD14a (with SsMAX2)) was “SL induced both SsD14a and SsD14b to interact with SsMAX2 in yeast”.
